Results reported in patent US8058395B2, “Chimeric protein comprising a green fluorescent ptotein fused to a transcription factor” (The United States of America as represented by the …, priority 1995, dated 2011).

Columns and labels:
GR = conditions: cited from earlier work
[1] = system: GFP-ER (human estrogen receptor); assay: Ligand effect on nuclear localization of GFP-ER in MCF7 cells; format: cell-based; conditions: GFP-ER already partially activated by medium
Procedure: GFP-fusion plasmids of the invention are tested for expression and subcellular localization by transfection into several mammalian cells. For example, GFP-GR plasmids were analyzed in C127 (mouse) cells, HeLa (human cervical cancer) cells, and MCF7 (human breast adenocarcinoma) cells (ATCC accession number HTB22). GFP-ER plasmids were analyzed in 1471.1 cells, C127 (mouse) cells, MCF7 (human breast adenocarcinoma) cells, and MDA-MB-231 (human breast adenocarcinoma) cells (ATCC accession number HTB 26). Localization is observed in the absence of added hormone in either-5% or 10% charcoal-stripped fetal calf serum. Cells having GFP-fusion plasmids are then treated with a selected ligand, and subcellular localization and quantitative observations are made.
Assay for Ligand Effects: GFP-fusion plasmids of the invention are assayed for effects of a selected ligand on subcellular localization by transfection into selected cells. C127 (mouse) cells, HeLa (human cervical cancer) cells, and MCF7 (human breast adenocarcinoma) cells (ATCC accession number HTB22) were each transfected with GFP-GR plasmids and with GFP-ER plasmids. Localization is first observed in the absence of added hormone in either 5% or 10% charcoal-stripped fetal calf serum. Cells having GFP-fusion plasmids are then treated with a selected ligand, and subcellular localization and quantitative observations are made. […]

**Q.** Which results are given for `C[C@]12CC[C@@H]3c4ccc(O)cc4CC[C@H]3[C@@H]1CC[C@@H]2O` [17-β-estradiol]?
**A.** affinity for GR (GR): no affinity; nuclear GFP-ER signal after addition of agonist [1]: further concentration of nuclear signals on nuclear structures
